Measurements from patent publication US20060281695A1, “Control of parasites in animals by N-[(phenyloxy)phenyl]-1,1,1-trifluoromethanesulfonamide and N-[(phenylsulfanyl)phenyl]-1,1,1-trifluoromethanesulfonamide derivatives” (priority 2005, published 2006).

Legend:
[1] = test system: cat flea (Ctenocephalides felis); test: Ctenocephalides felis adulticide assay: single dose screen on treated glass surface (% mortality at 1.26 μg/cm^2, 24 hours); type: in vivo; settings: for mortality at 1.26 µg/cm2, 1.26 µg/cm2: Ctenocephalides felis, 24 h, read-out: Ctenocephalides felis Mortality (%) 24 h
Method: The LC50 value is the concentration, expressed as μg/cm^2, that was required to kill 50% of the sample of cat fleas on contact with the tested compound. Certain tests are also reported as the percent of a sample of cat fleas that were killed at a concentration of 1.26 μg/cm^2 (“% mortality”), for the compounds tested in this way.
b) Ctenocephalides felis Adulticide Assay: C.felis single dose screen
Mortality of fleas is the primary endpoint in the assay. […] The concentration chosen (1.26 μg/cm^2) is higher than that known to kill 90% of cat fleas (LC90) using the reference compound, permethrin.
The test species employed was the cat flea (Ctenocephalides felis). The strain used was obtained from external suppliers as pupae and held in the laboratory under testing conditions until the adults had emerged. Fifteen (15) fleas were used in a minimum of four replicates against a single concentration level (approximately 60 fleas). The insects were selected to be in the adult life stage, aged between 3 and 7 days post emergence.
The compounds to be tested were supplied as solids and were prepared in acetone as described below prior to testing. Samples were stored in a refrigerator (5±1° C.) unless otherwise specified.
During the mortality testing, the temperature was maintained at 25±1° C. Humidity was maintained at 75±5%. The base (area=159 mm^2) of a 100 mL glass Erlenmeyer (conical) flask provided the treatment surface. Flasks were pre-treated with Coatasil™ glass treatment to maximise bio-availability of test compounds by preventing them from binding to glass the surface. The base of the 100 mL Erlenmeyer flask was treated with 0.5 mL of test sample in acetone and gently swirled. This volume was sufficient to cover the base of the flask. Flasks were left to dry for 24 hours before flea exposure.
Adult cat fleas were placed into a sorting chamber, which allowed fleas to jump into the Erlenmeyer flasks. Fifteen (15) adult cat fleas were collected in each flask. The top of the flasks were then covered in Parafilm™ and small holes were made to allow gas exchange. A 0.5 mL volume of acetone as a solvent control was applied to the base of an Erlenmeyer flask and the testing proceeded in the same manner described above. […] Pooled 24 hour mortality data were converted to percentages and are summarized by Table 4, below.
(§1) In Table 7, provided below, are listed the Haemonchus contortus LD99 values (measured in micrograms/mL), the Ctenocephalides felis rapid screening values (measured in % mortality), the Ctenocephalides felis LC50 values (measured in micrograms/cm^2) and the Rhipicephalus sanguineus rapid screening values (measured in % mortality) for selected compounds in accordance with the present invention.

[2] = test system: Brown Dog Tick (Rhipicephalus sanguineus); test: Topical application on brown dog ticks, single dose screen (% mortality at 24 hours); type: in vivo; settings: adult brown dog ticks, topical 1 μL in acetone on abdomen, single dose 10 μg per tick
Method: d) Topical Application On Brown Dog Ticks (Rhipicephalus sanguineus)
The aim of the test is to determine the presence of significant acaricidal activity in sample compounds or formulations when applied topically on brown dog ticks. A tick is defined as dead if it gives no apparent response when: (i) touched lightly and (ii) then observed for 1 minute. To assess the experimental compound for acaricidal activity, a single dose level is chosen based on known results from previous experiments with a commercially available active reference compound.
In the present example, both permethrin and fipronil were employed as reference compounds. The insect species tested was the Brown Dog Tick (Rhipicephalus sanguineus). Mixed sex adult ticks were used for tests. The strain used was cultured from a field strain and supplied as unfed adult ticks (mixed sex). Ticks were maintained in controlled conditions (temp. 18°±2° C., humidity 75±5% RH).
Test compounds (formulations or active ingredients) were stored in a refrigerator (5±1° C.) unless otherwise specified. The temperature was maintained at 25±1° C. and the humidity was ambient. The screening dose chosen was higher than that known kill 90% of insects (LD90) using the reference compound. In the case of topical application of active compounds on adult ticks, the reference compound was fipronil and the dose chosen was 10 μg of active per tick (=10 μg of fipronil/1 μl of acetone). Ticks were each treated on the abdomen with 1 μL of a single dose level of test sample in acetone; ten ticks were treated with solvent only (acetone) in each test. Tests were replicated 4 times (total of 40 ticks treated). Ticks were held in recovery containers maintained under appropriate rearing conditions for 24 hours. Mortality resulting from the treatments was recorded at 24 hours. Pooled 24 hour mortality data were converted to percentages.
as §1

Haemonchus contortus = Haemonchus contortus larvacidal (larval development) assay, LD99; type: in vitro
Method: The LD99 value is the dose, expressed as […], that was required to kill 99% of a sample of Haemonchus contortus.
a) Haemonchus Contortus Larvacidal Assay:
The effect of compounds on larval development was determined in the assay described by Gill et al. [International Journal of Parasitology 25:463-470 (1995)]. Briefly, in this assay, nematode eggs are applied to the surface of an agar matrix containing the test compound and then allowed to develop through to the L3, infective stage (6 days). The wells for each dilution of every compound (from highest to lowest concentration) are inspected to determine the well number corresponding to the lowest concentration at which development is inhibited in 99% of the nematode larvae present (LD99). Because well numbers correspond to a two-fold serial dilution of each compound, a titre (dilution factor) is generated as 2^n−1, where n is the well number. By dividing the highest concentration tested by the titre an LD99 value can be obtained, representing the concentration required to inhibit development in 99% of the nematode larvae present. The compounds supplied as solid and viscous liquids are dissolved in DMSO. Twelve serial one-half dilutions in DMSO solution are prepared from the stock solution, each of which is then diluted 1/5 with water. Aliquots (10 μl) of each dilution are transferred to the bioassay plates to give a final concentration range of 0.024 to 50 μg/ml.
as §1

[3] = adult cat fleas, single dose screen on treated glass surface, mortality at 24 h

| Compound | mortality at 1.26 µg/cm2, 1.26 µg/cm2 [1] | Rhipicephalus sanguineus Mortality (%) 24 h [2] | Ctenocephalides felis Mortality (%) 24 h ([1]; in vivo) | Ctenocephalides felis Mortality (%), measured at 48 hours ([1]; in vivo) | Haemonchus contortus LD99 (Haemonchus contortus) | Ctenocephalides felis Mortality (%) 24 h [1, 3] |
| --- | --- | --- | --- | --- | --- | --- |
| CC(C)=CCN(c1ccc(Cl)cc1Oc1ccc(Cl)cc1Cl)S(=O)(=O)C(F)(F)F [Compound 75, N-(3-methyl-2-butenyl)-N-[4-chloro-2-(2,4-dichlorophenoxy)phenyl]-1,1,1-trifluoromethanesulfonamide] | 97% | 3% | – | – | – | – |
| O=S(=O)(Nc1ccccc1Nc1ccccc1)C(F)(F)F [Compound 90] | – | 13% | 88% | – | – | – |
| CCCC(=O)OCN(c1ccc(Cl)cc1Oc1ccc(Cl)cc1Cl)S(=O)(=O)C(F)(F)F [Compound 73, N-[4-chloro-2-(2,4-dichlorophenoxy)phenyl]-N-(butyryl)oxymethyl-1,1,1-trifluoromethanesulfonamide] | 31% | 8% | – | 100% | – | – |
| CC(C)=CCN(c1ccc(Cl)cc1Oc1ccccc1F)S(=O)(=O)C(F)(F)F [Compound 82] | – | 0% | 90% | – | – | – |
| CCOCN(c1cccc(Oc2ccccc2)c1)S(=O)(=O)C(F)(F)F [m3] | – | 38% | 57% | – | – | – |
| COCN(c1cccc(Oc2ccccc2)c1)S(=O)(=O)C(F)(F)F [m4] | – | 8% | 90% | – | – | – |
| C#CCN(c1ccc(Cl)cc1Oc1ccccc1F)S(=O)(=O)C(F)(F)F [Compound 85] | – | 5% | 97% | – | – | – |
| O=S(=O)(Nc1ccc(Cl)cc1Oc1ccc(Cl)c(Cl)c1)C(F)(F)F [Compound 7] | – | – | – | – | 1.63 µg/mL | 22% |
| CC(C)(C)c1ccc(Oc2cc(Cl)c(Cl)cc2NS(=O)(=O)C(F)(F)F)cc1 [Compound 18] | – | – | 19% | – | 2.8 µg/mL | – |
| O=S(=O)(Nc1cc(C(F)(F)F)c(Cl)cc1Oc1ccc(Cl)cc1Cl)C(F)(F)F [Compound 22] | – | – | 4% | – | 0.63 µg/mL | – |
| COCN(c1ccc(Cl)cc1Oc1ccc(Cl)cc1Cl)S(=O)(=O)C(F)(F)F [Compound 84] | – | 0% | 100% | – | – | – |
| O=S(=O)(Nc1ccc(Cl)c(Cl)c1Oc1ccccc1F)C(F)(F)F [Compound 17] | – | – | 19% | – | 7.5 µg/mL | – |
| O=S(=O)(c1ccc(Cl)cc1)c1cc(Cl)ccc1NS(=O)(=O)C(F)(F)F [Compound 24, N-[4-chloro-2-(4-(chlorophenyl)sulfonyl)phenyl]-1,1,1-trifluoromethanesulfonamide] | – | – | 19% | – | 12.0 µg/mL | – |
| CC(C)(C)C(=O)OCN(c1ccc(Cl)cc1Oc1ccc(Cl)cc1Cl)S(=O)(=O)C(F)(F)F [Compound 72, N-[4-Chloro-2-(2,4-dichlorophenoxy)phenyl]-N-(trimethylacetyl)oxymethyl-1,1,1-trifluoromethanesulfonamide] | 14% | 0% | – | 100% | – | – |
| CC(C)(C)c1ccc(Oc2cc(Cl)ccc2NS(=O)(=O)C(F)(F)F)cc1 [Compound 3] | – | – | 58% | – | 7.0 µg/mL | – |
| O=S(=O)(Nc1cccc(Oc2ccccc2)c1)C(F)(F)F [m1] | – | 38% | 93% | – | – | – |
| CN(c1ccc(Cl)cc1Oc1ccc(Cl)cc1Cl)S(=O)(=O)C(F)(F)F [Compound 70, N-[4-Chloro-2-(2,4-dichlorophenoxy)phenyl]-N-methyl-1,1,1-trifluoromethanesulfonamide] | 11% | 5% | – | 91% | – | – |
| C#CCN(c1ccc(Cl)cc1Oc1ccc(Cl)cc1Cl)S(=O)(=O)C(F)(F)F [Compound 83, N-[4-chloro-2-(2,4-dichlorophenoxy)phenyl]-N-(2-propynyl)-1,1,1-trifluoromethanesulfonamide] | 100% | 8% | – | – | – | – |
| O=S(=O)(Nc1cc(C(F)(F)F)ccc1Oc1ccc(Cl)cc1Cl)C(F)(F)F [Compound 10] | – | – | 38% | – | 1.5 µg/mL | – |
| O=S(=O)(Nc1cc(Cl)c(Cl)cc1Oc1ccc(F)cc1Cl)C(F)(F)F [Compound 19] | – | – | 42% | – | 5.0 µg/mL | – |
| CCOCN(c1ccc(Cl)cc1Oc1ccc(Cl)cc1Cl)S(=O)(=O)C(F)(F)F [Compound 71, N-[4-Chloro-2-(2,4-dichlorophenoxy)phenyl]-N-ethoxymethyl 1,1,1-trifluoromethanesulfonamide] | – | 5% | 0% | 100% | – | – |
| O=S(=O)(Nc1ccc(Cl)cc1Oc1ccccc1Cl)C(F)(F)F [Compound 6] | – | – | 74% | – | 15.0 µg/mL | – |
| O=S(=O)(Nc1ccc(Cl)cc1Oc1cccc2c1CCCC2)C(F)(F)F [Compound 28] | – | – | – | – | 12 µg/mL | 10% |
| O=S(=O)(Nc1cc(C(F)(F)F)ccc1Oc1ccc(Cl)cc1)C(F)(F)F [Compound 29] | – | – | 57% | – | 7.0 µg/mL | – |
